Test results: PubChem BioAssay AID180 (DTP/NCI, 2004)
Several values for one entry are separate records, joined by “and”; a condition that tells them apart may be missing. Equal entries are not always repeated.

Tested on: BDF1 mice, Adenocarcinoma 755 s.c., tumor weight T/C
Test: NCI In Vivo Anticancer Drug Screen. Data for tumor model Adenocarcinoma 755 (subcutaneous) in B6D2F1 (BDF1) mice
Details: endpoint: mean tumor weight, higher = larger tumour
Outline: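 In vivo antitumor screen on a transplantable tumor line. Result equals the measure in compound-treated animals divided by the same measure in vehicle controls.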

[1] = dose: 25.0 mg/kg/injection, schedule: Q01DX011 (ip), vehicle: carboxymethylcellulose (CMC)
[2] = dose: 50.0 mg/kg/injection, schedule: Q01DX011 (ip), vehicle: carboxymethylcellulose (CMC)
[3] = dose: 15.0 mg/kg/injection, schedule: Q01DX011 (ip), vehicle: saline
[4] = dose: 12.0 mg/kg/injection, schedule: Q01DX011 (ip), vehicle: methylcellulose (MC)
[5] = dose: 1.0 mg/kg/injection, schedule: Q01DX011 (ip), vehicle: methylcellulose (MC)
[6] = dose: 15.0 mg/kg/injection, schedule: Q01DX011 (ip), vehicle: methylcellulose (MC)

CCC1OCCN1C(C)C (stereo not given)
T/C (dose: 12.0 mg/kg/injection, schedule: Q01DX011 (ip), vehicle: other): 118 % of control
T/C [1]: 57 % of control
T/C (dose: 25.0 mg/kg/injection, schedule: Q01DX011 (ip), vehicle: other): 109 % of control
T/C (dose: 25.0 mg/kg/injection, schedule: Q01DX011 (ip), vehicle: saline): 84 % of control
T/C [2]: 33 % of control
T/C (dose: 50.0 mg/kg/injection, schedule: Q01DX011 (ip), vehicle: other): 223 % of control
T/C (dose: 50.0 mg/kg/injection, schedule: Q01DX011 (ip), vehicle: saline): 29 % of control

NC(=O)c1cc(N)nc(Cl)n1
T/C [3]: 102 % of control
T/C (dose: 31.0 mg/kg/injection, schedule: Q01DX011 (ip), vehicle: saline): 90 % of control
T/C (dose: 62.0 mg/kg/injection, schedule: Q01DX011 (ip), vehicle: saline): 87 % of control
T/C (dose: 125.0 mg/kg/injection, schedule: Q01DX011 (ip), vehicle: saline): 83 % of control
T/C (dose: 250.0 mg/kg/injection, schedule: Q01DX011 (ip), vehicle: saline): 61 % of control

O=C(O)CC(Nc1ncnc2nc[nH]c12)C(=O)O (stereo not given)
T/C [4]: 105 % of control
T/C (dose: 25.0 mg/kg/injection, schedule: Q01DX011 (ip), vehicle: methylcellulose (MC)): 98 % of control
T/C (dose: 50.0 mg/kg/injection, schedule: Q01DX011 (ip), vehicle: methylcellulose (MC)): 103 % of control
T/C (dose: 100.0 mg/kg/injection, schedule: Q01DX011 (ip), vehicle: methylcellulose (MC)): 45 % of control

CCOC(=O)c1cnc(SCc2ccccc2Cl)nc1N1CC1
T/C (dose: 8.0 mg/kg/injection, schedule: Q01DX011 (ip), vehicle: carboxymethylcellulose (CMC)): 54 % of control
T/C (dose: 8.0 mg/kg/injection, schedule: Q01DX011 (ip), vehicle: other): 110 % of control
T/C (dose: 16.0 mg/kg/injection, schedule: Q01DX011 (ip), vehicle: carboxymethylcellulose (CMC)): 75 % of control
T/C (dose: 16.0 mg/kg/injection, schedule: Q01DX011 (ip), vehicle: other): 70 % of control
T/C (dose: 28.0 mg/kg/injection, schedule: Q01DX011 (ip), vehicle: carboxymethylcellulose (CMC)): 29 % of control
T/C (dose: 28.0 mg/kg/injection, schedule: Q01DX011 (ip), vehicle: other): 62 % of control
T/C (dose: 56.0 mg/kg/injection, schedule: Q01DX011 (ip), vehicle: carboxymethylcellulose (CMC)): 16 % of control
T/C (dose: 56.0 mg/kg/injection, schedule: Q01DX011 (ip), vehicle: other): 22 % of control

CSc1ncc(Br)c(Sc2nc(N)nc3nc[nH]c23)n1
T/C [5]: 75 % of control
T/C (dose: 3.0 mg/kg/injection, schedule: Q01DX011 (ip), vehicle: methylcellulose (MC)): 87 % of control
T/C (dose: 6.0 mg/kg/injection, schedule: Q01DX011 (ip), vehicle: methylcellulose (MC)): 14 % of control
T/C [4]: 3 % of control
T/C (dose: 15.0 mg/kg/injection, schedule: Q01DX011 (ip), vehicle: carboxymethylcellulose (CMC)): 10 % of control

O=P1(N(CCF)CCF)NCCCO1 (stereo not given)
T/C (dose: 3.75 mg/kg/injection, schedule: Q01DX011 (ip), vehicle: saline): 62 % of control
T/C (dose: 7.5 mg/kg/injection, schedule: Q01DX011 (ip), vehicle: saline): 79 % of control
T/C [3]: 26 % of control

CCN(CC)CCOc1ccc(C2=C(c3ccccc3)CCc3cc(OC)ccc32)cc1
T/C (dose: 25.0 mg/kg/injection, schedule: Q01DX011 (sc), vehicle: steriod suspending solution): 48 % of control
T/C (dose: 50.0 mg/kg/injection, schedule: Q01DX011 (sc), vehicle: steriod suspending solution): 32 % of control

CCSc1nc(Cl)cc(Sc2nc(N)nc3nc[nH]c23)n1
T/C (dose: 2.5 mg/kg/injection, schedule: Q01DX011 (ip), vehicle: methylcellulose (MC)): 84 % of control
T/C (dose: 5.0 mg/kg/injection, schedule: Q01DX011 (ip), vehicle: methylcellulose (MC)): 65 % of control
T/C (dose: 10.0 mg/kg/injection, schedule: Q01DX011 (ip), vehicle: methylcellulose (MC)): 80 % of control
T/C (dose: 12.5 mg/kg/injection, schedule: Q01DX011 (ip), vehicle: carboxymethylcellulose (CMC)): 82 % of control
T/C [6]: 40 % of control
T/C (dose: 18.0 mg/kg/injection, schedule: Q01DX011 (ip), vehicle: methylcellulose (MC)): 6 % of control
T/C [1]: 69 % of control
T/C (dose: 36.0 mg/kg/injection, schedule: Q01DX011 (ip), vehicle: methylcellulose (MC)): 20 % of control
T/C [2]: 24 % of control
T/C (dose: 72.0 mg/kg/injection, schedule: Q01DX011 (ip), vehicle: methylcellulose (MC)): 16 % of control
T/C (dose: 100.0 mg/kg/injection, schedule: Q01DX011 (ip), vehicle: carboxymethylcellulose (CMC)): 1 % of control
T/C (dose: 144.0 mg/kg/injection, schedule: Q01DX011 (ip), vehicle: methylcellulose (MC)): 15 % of control
T/C (dose: 200.0 mg/kg/injection, schedule: Q01DX011 (ip), vehicle: carboxymethylcellulose (CMC)): 3 % of control

CC(=O)OCC(=O)[C@@]1(O)CC[C@H]2[C@@H]3C[C@H](C)C4=CC(=O)CC[C@]4(C)[C@H]3[C@@H](O)C[C@@]21C
T/C (dose: 2.75 mg/kg/injection, schedule: Q01DX011 (sc), vehicle: steriod suspending solution): 73 % of control
T/C (dose: 5.5 mg/kg/injection, schedule: Q01DX011 (sc), vehicle: steriod suspending solution): 55 % of control and 71 % of control
T/C (dose: 22.0 mg/kg/injection, schedule: Q01DX011 (sc), vehicle: water): 19 % of control
T/C (dose: 44.0 mg/kg/injection, schedule: Q01DX011 (sc), vehicle: steriod suspending solution): 42 % of control
T/C (dose: 44.0 mg/kg/injection, schedule: Q01DX011 (sc), vehicle: water): 14 % of control and 20 % of control
T/C (dose: 87.0 mg/kg/injection, schedule: Q01DX011 (sc), vehicle: steriod suspending solution): 50 % of control
T/C (dose: 87.5 mg/kg/injection, schedule: Q01DX011 (sc), vehicle: water): 11 % of control and 15 % of control
T/C (dose: 175.0 mg/kg/injection, schedule: Q01DX011 (sc), vehicle: steriod suspending solution): 25 % of control
T/C (dose: 175.0 mg/kg/injection, schedule: Q01DX011 (sc), vehicle: water): 3 % of control and 4 % of control

Cc1nc2nc(N)nc(N)c2nc1C
T/C (dose: 12.62 mg/kg/injection, schedule: Q01DX011 (ip), vehicle: carboxymethylcellulose (CMC)): 67 % of control
T/C (dose: 15.63 mg/kg/injection, schedule: Q01DX011 (ip), vehicle: carboxymethylcellulose (CMC)): 50 % of control
T/C (dose: 62.5 mg/kg/injection, schedule: Q01DX011 (ip), vehicle: carboxymethylcellulose (CMC)): 122 % of control and 123 % of control
T/C (dose: 125.0 mg/kg/injection, schedule: Q01DX011 (ip), vehicle: carboxymethylcellulose (CMC)): 58 % of control

O=P(N1CCCCCC1)(N1CC1)N1CC1
T/C [5]: 95 % of control
T/C (dose: 2.0 mg/kg/injection, schedule: Q01DX011 (ip), vehicle: methylcellulose (MC)): 68 % of control
T/C (dose: 4.0 mg/kg/injection, schedule: Q01DX011 (ip), vehicle: methylcellulose (MC)): 48 % of control
T/C (dose: 8.0 mg/kg/injection, schedule: Q01DX011 (ip), vehicle: methylcellulose (MC)): 28 % of control

O=C(OCC1OC(n2cnc3c(=O)[nH]cnc32)CC1OC(=O)c1ccccc1)c1ccccc1 (stereo not given)
T/C (dose: 60.0 mg/kg/injection, schedule: Q01DX011 (ip), vehicle: carboxymethylcellulose (CMC)): 101 % of control
T/C (dose: 120.0 mg/kg/injection, schedule: Q01DX011 (ip), vehicle: carboxymethylcellulose (CMC)): 90 % of control

Ic1ncnc2c1ncn2C1CCCCO1 (stereo not given)
T/C (dose: 5.0 mg/kg/injection, schedule: Q01DX011 (ip), vehicle: other): 123 % of control
T/C (dose: 10.0 mg/kg/injection, schedule: Q01DX011 (ip), vehicle: other): 47 % of control
T/C (dose: 15.0 mg/kg/injection, schedule: Q01DX011 (ip), vehicle: other): 94 % of control
T/C (dose: 20.0 mg/kg/injection, schedule: Q01DX011 (ip), vehicle: other): 68 % of control and 70 % of control
T/C (dose: 30.0 mg/kg/injection, schedule: Q01DX011 (ip), vehicle: other): 100 % of control and 76 % of control
T/C (dose: 31.0 mg/kg/injection, schedule: Q01DX011 (ip), vehicle: other): 14 % of control
T/C (dose: 62.0 mg/kg/injection, schedule: Q01DX011 (ip), vehicle: other): 14 % of control

CC(=O)NCC(=O)O
T/C (dose: 100.0 mg/kg/injection, schedule: Q01DX011 (ip), vehicle: other): 106 % of control
T/C (dose: 200.0 mg/kg/injection, schedule: Q01DX011 (ip), vehicle: other): 74 % of control
T/C (dose: 800.0 mg/kg/injection, schedule: Q01DX011 (ip), vehicle: other): 87 % of control

Cn1ccc(N)nc1=O
T/C [6]: 88 % of control
T/C (dose: 31.0 mg/kg/injection, schedule: Q01DX011 (ip), vehicle: methylcellulose (MC)): 108 % of control
T/C (dose: 62.0 mg/kg/injection, schedule: Q01DX011 (ip), vehicle: methylcellulose (MC)): 98 % of control
T/C (dose: 125.0 mg/kg/injection, schedule: Q01DX011 (ip), vehicle: methylcellulose (MC)): 84 % of control
